Assay results reported in ChEMBL document CHEMBL1201862, “PubChem BioAssay data set” (2004).
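Interpolation was linear, between the two tested concentrations surrounding the appropriate level; five concentrations were tested over 48 hours in 96-well plates. GI50 marks 50% less growth.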 Activity calls are given as the source filed them. Rule as the data show it: active = GI50 up to about 1.1 µM and inactive = higher.

Assays:
Experiment in all cases: NCI-60 cell line screen, 48 h
[1] = tested on: U-251
[2] = tested on: Malme-3M
[3] = tested on: SF-295
[4] = tested on: CAKI-1
[5] = tested on: OVCAR-4
[6] = tested on: RPMI-8226
[7] = tested on: UACC-62
[8] = tested on: NCI-H460
[9] = tested on: COLO 205
[10] = tested on: SF-539
[11] = tested on: LOX IMVI
[12] = tested on: OVCAR-3
[13] = tested on: HCT-116
[14] = tested on: HT-29
[15] = tested on: MOLT-4
[16] = tested on: EKVX
[17] = tested on: A498
[18] = tested on: SN12C
[19] = tested on: MDA-MB-435
[20] = tested on: MDA-N

Row | SMILES | GI50 [1] | GI50 [2] | GI50 [3] | GI50 [4] | GI50 [5] | GI50 [6] | GI50 [7] | GI50 [8] | GI50 [9] | GI50 [10] | GI50 [11] | GI50 [12] | GI50 [13] | GI50 [14] | GI50 [15] | GI50 [16] | GI50 [17] | GI50 [18] | GI50 [19] | GI50 [20]
1 | O=C(O)C12C3C4C1C1C2C3C41I (centres undefined) | > 100 µM (inactive) | > 100 µM (inactive) | > 100 µM (inactive) | > 100 µM (inactive) | > 100 µM (inactive) | > 100 µM (inactive) | > 100 µM (inactive) | > 100 µM (inactive) | > 100 µM (inactive) | > 100 µM (inactive) | > 100 µM (inactive) | > 100 µM (inactive) | > 100 µM (inactive) | > 100 µM (inactive) | > 100 µM (inactive) | > 100 µM (inactive) | > 100 µM (inactive) | > 100 µM (inactive) | – | –
2 | O=C(O)c1ccc(Nc2nc3ccc(C(F)(F)F)cc3nc2-c2ccccc2)cc1 | 31.4 µM (inactive) | 33.2 µM (inactive) | 48 µM (inactive) | 44.6 µM (inactive) | – | 30.1 µM (inactive) | 14.6 µM (inactive) | 29.6 µM (inactive) | – | 27 µM (inactive) | 40.4 µM (inactive) | 17.9 µM (inactive) | 29.6 µM (inactive) | > 10 µM (inactive) | 30 µM (inactive) | 29 µM (inactive) | – | 77.6 µM (inactive) | 34.9 µM (inactive) | 47.6 µM (inactive)
3 | c1ccc(CSc2nc(N3CCCCC3)c3cn[nH]c3n2)cc1 | 19.1 µM (inactive) | 20.4 µM (inactive) | 24.9 µM (inactive) | 29.6 µM (inactive) | 36.1 µM (inactive) | 26.6 µM (inactive) | 15.4 µM (inactive) | 22.8 µM (inactive) | 23 µM (inactive) | 18.4 µM (inactive) | 21 µM (inactive) | 24.5 µM (inactive) | 19.2 µM (inactive) | 31.8 µM (inactive) | 49.1 µM (inactive) | 20.3 µM (inactive) | 15.6 µM (inactive) | 19.7 µM (inactive) | 22.4 µM (inactive) | –
4 | Cc1c(/C=N\NC(=S)N(C)CCN(C)C(=S)N/N=C\c2c(C)n(C)n(-c3ccccc3)c2=O)c(=O)n(-c2ccccc2)n1C | > 100 µM (inactive) | 55.7 µM (inactive) | > 100 µM (inactive) | > 100 µM (inactive) | > 100 µM (inactive) | – | > 100 µM (inactive) | > 100 µM (inactive) | > 100 µM (inactive) | > 100 µM (inactive) | – | > 100 µM (inactive) | > 100 µM (inactive) | > 100 µM (inactive) | > 100 µM (inactive) | > 100 µM (inactive) | > 100 µM (inactive) | – | > 100 µM (inactive) | –
5 | COc1cc(Br)c(OC)c2c(OC)cc(C)cc12 | > 100 µM (inactive) | > 100 µM (inactive) | > 100 µM (inactive) | – | – | 54.5 µM (inactive) | > 100 µM (inactive) | > 100 µM (inactive) | > 100 µM (inactive) | > 100 µM (inactive) | > 100 µM (inactive) | > 100 µM (inactive) | > 100 µM (inactive) | 67.8 µM (inactive) | 20 µM (inactive) | – | > 100 µM (inactive) | > 100 µM (inactive) | 70.6 µM (inactive) | –
6 | COC[C@H](Cc1ccccc1)/N=C/c1ccccc1 | > 100 µM (inactive) | > 100 µM (inactive) | > 100 µM (inactive) | > 100 µM (inactive) | > 100 µM (inactive) | > 100 µM (inactive) | > 100 µM (inactive) | > 100 µM (inactive) | > 100 µM (inactive) | – | > 100 µM (inactive) | – | > 100 µM (inactive) | > 100 µM (inactive) | > 100 µM (inactive) | > 100 µM (inactive) | – | > 100 µM (inactive) | > 100 µM (inactive) | –
7 | COC(=O)C(C(=O)C(=O)Nc1ccccc1C)c1nc2ccc([N+](=O)[O-])cc2nc1O (centres undefined) | > 100 µM (inactive) | > 100 µM (inactive) | > 100 µM (inactive) | > 100 µM (inactive) | > 100 µM (inactive) | > 100 µM (inactive) | > 100 µM (inactive) | > 100 µM (inactive) | > 100 µM (inactive) | > 100 µM (inactive) | > 100 µM (inactive) | > 100 µM (inactive) | > 100 µM (inactive) | > 100 µM (inactive) | > 100 µM (inactive) | > 100 µM (inactive) | > 100 µM (inactive) | > 100 µM (inactive) | – | –
8 | O=C1C(Cl)=C(Cl)C(=O)N1c1ccc(Cl)c(Cl)c1Cl | > 100 µM (inactive) | 31.6 µM (inactive) | > 100 µM (inactive) | 25.5 µM (inactive) | 28.4 µM (inactive) | 34 µM (inactive) | 30.5 µM (inactive) | > 100 µM (inactive) | 29.9 µM (inactive) | > 100 µM (inactive) | 69 µM (inactive) | 41.6 µM (inactive) | 85.9 µM (inactive) | 51.4 µM (inactive) | 32.6 µM (inactive) | 61.5 µM (inactive) | > 100 µM (inactive) | 58.1 µM (inactive) | – | –
9 | O=C(CNc1cccc([N+](=O)[O-])c1)Nn1c(-c2ccccc2)nc2ccccc2c1=O | 1.05 µM (active) | 0.973 µM (active) | 1.58 µM (inactive) | – | 2.18 µM (inactive) | 0.478 µM (active) | 0.212 µM (active) | 0.555 µM (active) | 1.43 µM (inactive) | 1.97 µM (inactive) | 0.221 µM (active) | 2.38 µM (inactive) | 0.508 µM (active) | 0.312 µM (active) | 0.246 µM (active) | 2.41 µM (inactive) | 0.0112 µM (active) | 0.508 µM (active) | 2.02 µM (inactive) | –
10 | Cc1ccc(S(=O)(=O)N/N=C(\c2nc3ccc([N+](=O)[O-])cc3nc2O)C(O)c2ccccc2Cl)cc1 (centres undefined) | > 100 µM (inactive) | > 100 µM (inactive) | > 100 µM (inactive) | > 100 µM (inactive) | > 100 µM (inactive) | 61.1 µM (inactive) | 86.9 µM (inactive) | > 100 µM (inactive) | > 100 µM (inactive) | > 100 µM (inactive) | > 100 µM (inactive) | > 100 µM (inactive) | > 100 µM (inactive) | > 100 µM (inactive) | > 100 µM (inactive) | > 100 µM (inactive) | > 100 µM (inactive) | > 100 µM (inactive) | – | –
11 | CCC(C)N1CN(c2ccccc2)C2(CCN(CCCSc3ccc(F)cc3)CC2)C1=O (centres undefined) | 3.72 µM (inactive) | 4.48 µM (inactive) | 2.35 µM (inactive) | 3.45 µM (inactive) | – | 2.31 µM (inactive) | 5.47 µM (inactive) | – | 1.72 µM (inactive) | 2.57 µM (inactive) | 3.05 µM (inactive) | 2.33 µM (inactive) | 2.88 µM (inactive) | 2.15 µM (inactive) | 3 µM (inactive) | 3.33 µM (inactive) | – | 3.78 µM (inactive) | 3.05 µM (inactive) | 2.9 µM (inactive)
12 | CCn1c(=O)c2nc(SC)sc2n(-c2ccc(C)cc2)c1=O | > 100 µM (inactive) | > 100 µM (inactive) | > 100 µM (inactive) | – | > 100 µM (inactive) | > 100 µM (inactive) | – | > 100 µM (inactive) | > 100 µM (inactive) | > 100 µM (inactive) | > 100 µM (inactive) | > 100 µM (inactive) | > 100 µM (inactive) | > 100 µM (inactive) | > 100 µM (inactive) | – | – | > 100 µM (inactive) | 2.17 µM (inactive) | > 100 µM (inactive)
13 | CCCCC/C=C\C=C\CCCCCCCCC(=O)OC | > 100 µM (inactive) | > 100 µM (inactive) | > 100 µM (inactive) | > 100 µM (inactive) | > 100 µM (inactive) | > 100 µM (inactive) | – | > 100 µM (inactive) | > 100 µM (inactive) | > 100 µM (inactive) | 29.8 µM (inactive) | > 100 µM (inactive) | > 100 µM (inactive) | > 100 µM (inactive) | > 100 µM (inactive) | > 100 µM (inactive) | > 100 µM (inactive) | > 100 µM (inactive) | – | > 100 µM (inactive)
14 | CCC1(OC(C)=O)C(=O)OCc2c1cc1n(c2=O)Cc2cc3ccccc3nc2-1 (centres undefined) | 0.289 µM (active) | 3.44 µM (inactive) | 0.778 µM (active) | 1.07 µM (active) | 41.4 µM (inactive) | 4.2 µM (inactive) | 0.251 µM (active) | 0.262 µM (active) | 35.1 µM (inactive) | 0.568 µM (active) | 1.01 µM (active) | 10.7 µM (inactive) | 2.03 µM (inactive) | 3.63 µM (inactive) | 0.264 µM (active) | 12.8 µM (inactive) | 2.55 µM (inactive) | 0.638 µM (active) | – | –
15 | O=c1/c(=C/c2ccco2)sc2nc3ccccc3n12 | > 10 µM (inactive) | > 10 µM (inactive) | > 10 µM (inactive) | > 10 µM (inactive) | > 10 µM (inactive) | > 10 µM (inactive) | > 10 µM (inactive) | > 10 µM (inactive) | > 100 µM (inactive) | > 10 µM (inactive) | > 10 µM (inactive) | > 10 µM (inactive) | > 10 µM (inactive) | > 10 µM (inactive) | > 10 µM (inactive) | 59.2 µM (inactive) | > 10 µM (inactive) | > 10 µM (inactive) | – | –
16 | CCN1CCN=C2c3cc(OC)ccc3Nc3c([N+](=O)[O-])ccc1c32 | – | 0.841 µM (active) | 1.61 µM (inactive) | 0.485 µM (active) | 1.29 µM (inactive) | 0.552 µM (active) | 1.39 µM (inactive) | – | 0.668 µM (active) | – | – | – | – | 0.705 µM (active) | 0.279 µM (active) | 2.12 µM (inactive) | – | 0.796 µM (active) | 1.01 µM (active) | 0.839 µM (active)
